System: spontaneously hypertensive rats (SHR)
Test: Antihypertensive effect, oral administration to spontaneously hypertensive rats (mean blood pressure and heart rate)
Type: in vivo, rat
Conditions: Table 3, SHR, p.o.
Description: Antihypertensive effect was determined by oral administration of the test compound to spontaneously hypertensive rats (hereinafter referred to as SHR).
These SHR were anesthetized with ether and chronically embedded with a cannula for determination of blood pressure so that one end of the said cannula may be placed in abdominal aorta and the other end thereof may be projected out of dorsal neck. When rats regained their body weight before operation in more than 1 week from operation, the test compound was given. Determination was made by measuring a mean blood pressure and a heart rate under unanesthetized and unrestrained conditions with the cannula connected to an electronic recording system. The test compound was suspended in a 1% tragacanth gum solution to make up a concentration so as to be a volume of 5 ml./kg. and then orally given.

| Compound | Changes in average blood pressures after administration (1 mg./kg., 1 hr.) [mmHg] | Changes in average blood pressures after administration (1 mg./kg., 3 hrs.) [mmHg] | Changes in average blood pressures after administration (1 mg./kg., 6 hrs.) [mmHg] | Changes in average blood pressures after administration (1 mg./kg., 24 hrs.) [mmHg] | Changes in average blood pressures after administration (3 mg./kg., 1 hr.) [mmHg] | Changes in average blood pressures after administration (3 mg./kg., 3 hrs.) [mmHg] | Changes in average blood pressures after administration (3 mg./kg., 6 hrs.) [mmHg] | Changes in average blood pressures after administration (3 mg./kg., 24 hrs.) [mmHg] | Changes in average blood pressures after administration (10 mg./kg., 1 hr.) [mmHg] | Changes in average blood pressures after administration (10 mg./kg., 3 hrs.) [mmHg] | Changes in average blood pressures after administration (10 mg./kg., 6 hrs.) [mmHg] | Changes in average blood pressures after administration (10 mg./kg., 24 hrs.) [mmHg] |
| --- | --- | --- | --- | --- | --- | --- | --- | --- | --- | --- | --- | --- |
| COc1cc2nc(N3CCN(C(=O)C(C)=Cc4ccco4)CC3)nc(N)c2cc1OC [compound 31, 2-{4-[2-Methyl-3-(furan-2-yl)-acryloyl]-piperazin-1-yl}-4-amino-6,7-dimethoxyquinazoline] | -22 | -23 | -24 | -6 |  |  |  |  |  |  |  |  |
| COc1cc2nc(N3CCN(C(=O)C=Cc4ccc([N+](=O)[O-])o4)CC3)nc(N)c2cc1OC [compound 33, 2-{4-[3-(5-Nitrofuran-2-yl)-acryloyl]-piperazin-1-yl}-4-amino-6,7-dimethoxyquinazoline] |  |  |  |  | -15 | -20 | -11 | 3 |  |  |  |  |
| COc1cc2nc(N3CCN(C(=O)C=Cc4ccc(Cl)o4)CC3)nc(N)c2cc1OC [compound 34, 2-{4-[3-(5-chlorofuran-2-yl)-acryloyl]-piperazin-1-yl}-4-amino-6,7-dimethoxyquinazoline] |  |  |  |  | -20 | -26 | -28 | 0 |  |  |  |  |
| COc1cc2nc(N3CCN(C(=O)C=Cc4cccs4)CC3)nc(N)c2cc1OC [compound 35, 2-{4-[3-(Thiophen-2-yl)-acryloyl]-piperazin-1-yl}-4-amino-6,7-dimethoxyquinazoline] | -27 | -25 | -25 | 0 | -45 | -27 | -42 | -2 |  |  |  |  |
| COc1cc2nc(N3CCN(C(=O)C=Cc4ccsc4)CC3)nc(N)c2cc1OC [compound 36, 2-{4-[3-(Thiophen-3-yl)-acryloyl]-piperazin-1-yl}-4-amino-6,7-dimethoxyquinazoline] | -18 | -20 | -27 | 3 | -47 | -30 | -35 | 0 |  |  |  |  |
| COc1cc2nc(N3CCN(C(=O)C=Cc4sccc4C)CC3)nc(N)c2cc1OC [compound 37, 2-{4-[3-(3-Methylthiophen-2-yl)-acryloyl]-piperazin-1-yl}-4-amino-6,7-dimethoxyquinazoline] |  |  |  |  | -18 | -18 | -18 | 5 |  |  |  |  |
| COc1cc2nc(N3CCN(C(=O)C=Cc4ccc(C)s4)CC3)nc(N)c2cc1OC [compound 38, 2-{4-[3-(5-Methylthiophen-2-yl)-acryloyl]-piperazin-1-yl}-4-amino-6,7-dimethoxyquinazoline] |  |  |  |  | -18 | -27 | -18 | -2 |  |  |  |  |
| COc1cc2nc(N3CCN(C(=O)C(C)=Cc4cccs4)CC3)nc(N)c2cc1OC [compound 39, 2-{4-[2-Methyl-3-(thiophen-2-yl)-acryloyl]-piperazin-1-yl}-4-amino-6,7-dimethoxyquinazoline] | -18 | -12 | -13 | 3 | -65 | -27 | -35 | -15 |  |  |  |  |
| COc1cc2nc(N3CCN(C(=O)C=Cc4ccccn4)CC3)nc(N)c2cc1OC [compound 43, 2-{4-[3-(Pyridin-2-yl)-acryloyl]-piperazin-1-yl}-4-amino-6,7-dimethoxyquinazoline] |  |  |  |  | -40 | -22 | -30 | 8 | -23 | -22 | -18 | -3 |
| COc1cc2nc(N3CCN(C(=O)C=Cc4cccnc4)CC3)nc(N)c2cc1OC [compound 44, 2-{4-[3-(Pyridin-3-yl)-acryloyl]-piperazin-1-yl}-4-amino-6,7-dimethoxyquinazoline] |  |  |  |  | -28 | -15 | -25 | 3 |  |  |  |  |
| COc1cc2nc(N3CCN(C(=O)C=Cc4ccncc4)CC3)nc(N)c2cc1OC [compound 45, 2-{4-[3-(Pyridin-4-yl)-acryloyl]-piperazin-1-yl}-4-amino-6,7-dimethoxyquinazoline] |  |  |  |  | -9 | -5 | -12 | 0 |  |  |  |  |
| COc1cc2nc(N3CCCN(C(=O)C=Cc4ccco4)CC3)nc(N)c2cc1OC [compound 46, 2-{4-[3-(Furan-2-yl)-acryloyl]-homopiperazin-1-yl}-4-amino-6,7-dimethoxyquinazoline] |  |  |  |  | -20 | -10 | -12 | -8 |  |  |  |  |
| COc1cc2nc(N3CCCN(C(=O)C=Cc4cccs4)CC3)nc(N)c2cc1OC [compound 47, 2-{4-[3-(Thiophen-2-yl)-acryloyl]-homopiperazin-1-yl}-4-amino-6,7-dimethoxyquinazoline] |  |  |  |  | -22 | -13 | -17 | 2 |  |  |  |  |
| COc1cc2nc(N3CCCN(C(=O)C=Cc4cccnc4)CC3)nc(N)c2cc1OC [compound 48, 2-{4-[3-(Pyridin-3-yl)-acryloyl]-homopiperazin-1-yl}-4-amino-6,7-dimethoxyquinazoline] |  |  |  |  | -9 | 0 | 0 | 2 |  |  |  |  |

— US4189484A, “Antihypertensive quinazoline derivatives” (priority 1977, dated 1980)
